For one assay, the target named is Cannabinoid receptor 2 (Homo sapiens, UniProt P34972). The assay is described as follows: CB Receptor Radioligand Binding Assay (Ki). The procedure:
IC50 values for test compounds were determined from nonlinear regression analysis of data collected from ligand displacement experiments. The inhibition constant (Ki) was calculated from IC50 value by the Cheng and Prusoff equation.

Assay [1] has as its target Transient receptor potential cation channel subfamily V member 1 (Homo sapiens, UniProt Q8NER1). The assay is described as follows: TRPV1 Channel Activity Assay. The procedure:
The effect of the substances on Ca2+ influx was determined by using HEK-293 cells stably overexpressing recombinant human TRPV1 cDNA. The cells were loaded with Fluo-4, a selective intracellular fluorescent probe for Ca2+. Experiments were carried out by measuring cell fluorescence before and after the addition of the test compounds at various concentrations. Agonist activity was determined in comparison to the maximum Ca2+ influx due to the application of 4 uM ionomycin. EC50 values were determined as the concentration of test substances required to produce half-maximal increases in [Ca2+]i. All determinations were at least performed in triplicate. Curve fitting (sigmoidal dose-response variable slope) and parameter estimation were performed with GraphPad Prism (GraphPad Software Inc., San Diego, CA).

Drawing on BindingDB's records for doi:10.1021/jm900130m (Universita Del Piemonte Orientale, 2009), this text covers Ki and EC50 for two compounds.

Transient receptor potential cation channel subfamily V member 1, sequence (Q8NER1 whole entry): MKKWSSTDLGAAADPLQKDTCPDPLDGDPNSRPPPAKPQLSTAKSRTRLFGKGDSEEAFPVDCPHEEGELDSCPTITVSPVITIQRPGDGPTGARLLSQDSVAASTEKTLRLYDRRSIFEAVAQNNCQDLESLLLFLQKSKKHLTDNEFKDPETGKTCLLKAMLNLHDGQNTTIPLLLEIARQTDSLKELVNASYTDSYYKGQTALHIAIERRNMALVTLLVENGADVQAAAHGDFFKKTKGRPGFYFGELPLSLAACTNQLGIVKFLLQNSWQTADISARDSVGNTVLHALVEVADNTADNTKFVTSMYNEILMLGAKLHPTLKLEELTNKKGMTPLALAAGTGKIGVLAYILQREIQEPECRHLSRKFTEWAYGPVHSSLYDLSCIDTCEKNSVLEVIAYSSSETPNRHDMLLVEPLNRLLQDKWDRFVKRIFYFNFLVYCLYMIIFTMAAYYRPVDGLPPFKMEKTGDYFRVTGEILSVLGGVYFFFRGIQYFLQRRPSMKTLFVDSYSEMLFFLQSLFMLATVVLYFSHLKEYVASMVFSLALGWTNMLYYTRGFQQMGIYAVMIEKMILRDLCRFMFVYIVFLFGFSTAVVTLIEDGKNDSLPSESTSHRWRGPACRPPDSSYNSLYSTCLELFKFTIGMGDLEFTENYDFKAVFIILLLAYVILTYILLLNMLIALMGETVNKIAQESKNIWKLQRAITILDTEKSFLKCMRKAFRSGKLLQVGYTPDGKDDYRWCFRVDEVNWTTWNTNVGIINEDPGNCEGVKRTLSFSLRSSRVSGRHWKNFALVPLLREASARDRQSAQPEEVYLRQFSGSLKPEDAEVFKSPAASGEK
Cannabinoid receptor 2, sequence (P34972 whole entry): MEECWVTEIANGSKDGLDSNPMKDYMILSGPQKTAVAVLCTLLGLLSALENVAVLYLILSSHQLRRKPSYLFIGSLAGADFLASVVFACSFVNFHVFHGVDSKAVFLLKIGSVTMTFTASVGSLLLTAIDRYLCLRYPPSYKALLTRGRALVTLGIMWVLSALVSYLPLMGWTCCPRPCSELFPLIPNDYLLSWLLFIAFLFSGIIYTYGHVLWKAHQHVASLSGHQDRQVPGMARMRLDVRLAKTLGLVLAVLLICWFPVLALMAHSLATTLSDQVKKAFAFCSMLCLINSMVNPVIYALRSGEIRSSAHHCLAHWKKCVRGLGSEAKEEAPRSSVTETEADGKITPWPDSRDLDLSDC

Broadly, the Ki is the dissociation constant of the complex between target and ligand, obtained from inhibition or displacement. Lower therefore signals a stronger hold on the target. The EC50 is the concentration needed to bring the measured effect to its halfway point. Take `CCCCCCCC/C=C\CCCCCCCC(=O)N[C@H]1C[C@@H]1O` [cyclopropanolamide, 11b]: on Cannabinoid receptor 2, the Ki was found to be 2420 nM. In addition, a half-maximal effect in assay [1] (EC50) was put at 19 nM.

Consider `CCCCCCCC/C=C\CCCCCCCC(=O)N[C@H]1C[C@H]1O` [cyclopropanolamide, 14b], for which the Ki on Cannabinoid receptor 2 was found to be 1630 nM. In assay [1], the concentration giving a half-maximal response (EC50) was 180 nM.
